Test results as given in ChEMBL document CHEMBL1201862, “PubChem BioAssay data set” (2004).
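48-hour exposure; five concentrations; linearly interpolated endpoints. GI50 marks 50% less growth.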 Calls of active or inactive are those of the source. No stated cut-off is given here; in the data, active = GI50 up to about 1.1 µM and inactive = higher.

Assays:
Test in all cases: inhibition of tumour cell growth, NCI panel, 48 h
SK-MEL-28 = system: SK-MEL-28
U-251 = system: U-251
CCRF-CEM = system: CCRF-CEM
DMS-114 = system: DMS-114
K562 = system: K562
SR = system: SR
HCT-15 = system: HCT-15
EKVX = system: EKVX
XF498 = system: XF498
NCI-H226 = system: NCI-H226
KM12 = system: KM12
SK-OV-3 = system: SK-OV-3
IGROV-1 = system: IGROV-1
A549 = system: A549
MOLT-4 = system: MOLT-4
Malme-3M = system: Malme-3M
SF-295 = system: SF-295
HOP-18 = system: HOP-18
HOP-92 = system: HOP-92
M19-MEL = system: M19-MEL
TK-10 = system: TK-10
SF-539 = system: SF-539
KM-20L2 = system: KM-20L2
OVCAR-3 = system: OVCAR-3
M14 = system: M14
HT-29 = system: HT-29
HCC 2998 = system: HCC 2998
786-0 = system: 786-0
LXFL 529 = system: LXFL 529
ACHN = system: ACHN
RPMI-8226 = system: RPMI-8226
NCI-H23 = system: NCI-H23
SNB-75 = system: SNB-75
UACC-257 = system: UACC-257
NCI-H522 = system: NCI-H522
RXF 631 = system: RXF 631
DLD-1 = system: DLD-1
OVCAR-4 = system: OVCAR-4
LOX IMVI = system: LOX IMVI
COLO 205 = system: COLO 205
UACC-62 = system: UACC-62
CAKI-1 = system: CAKI-1
UO-31 = system: UO-31
OVCAR-5 = system: OVCAR-5
SNB-19 = system: SNB-19
SN12C = system: SN12C
SF-268 = system: SF-268
NCI-H460 = system: NCI-H460
SK-MEL-5 = system: SK-MEL-5
HOP-62 = system: HOP-62
SNB-78 = system: SNB-78
OVCAR-8 = system: OVCAR-8
DMS-273 = system: DMS-273
RXF 393 = system: RXF 393
HCT-116 = system: HCT-116
SK-MEL-2 = system: SK-MEL-2
A498 = system: A498
HL-60 = system: HL-60
SW-620 = system: SW-620

Compound: O=C(Cc1csc(-c2nc(CC(=O)NNc3ccccc3)cs2)n1)NNc1ccccc1
- GI50 (SK-MEL-28): > 100 µM (inactive)
- GI50 (U-251): > 100 µM (inactive)
- GI50 (CCRF-CEM): 34.9 µM (inactive)
- GI50 (DMS-114): 25.6 µM (inactive)
- GI50 (K562): 32.8 µM (inactive)
- GI50 (SR): 25.5 µM (inactive)
- GI50 (HCT-15): 38.4 µM
- GI50 (EKVX): > 100 µM (inactive)
- GI50 (XF498): > 100 µM (inactive)
- GI50 (NCI-H226): > 100 µM (inactive)
- GI50 (KM12): > 100 µM (inactive)
- GI50 (SK-OV-3): > 100 µM (inactive)
- GI50 (IGROV-1): > 100 µM (inactive)
- GI50 (A549): > 100 µM (inactive)
- GI50 (MOLT-4): 39.4 µM (inactive)
- GI50 (Malme-3M): > 100 µM (inactive)
- GI50 (SF-295): > 100 µM (inactive)
- GI50 (HOP-18): > 100 µM (inactive)
- GI50 (HOP-92): > 100 µM (inactive)
- GI50 (M19-MEL): > 100 µM (inactive)
- GI50 (TK-10): > 100 µM (inactive)
- GI50 (SF-539): > 100 µM (inactive)
- GI50 (KM-20L2): > 100 µM (inactive)
- GI50 (OVCAR-3): > 100 µM (inactive)
- GI50 (M14): > 100 µM (inactive)
- GI50 (HT-29): 71.1 µM (inactive)
- GI50 (HCC 2998): 43 µM (inactive)
- GI50 (786-0): 35.6 µM (inactive)
- GI50 (LXFL 529): 91.2 µM (inactive)
- GI50 (ACHN): > 100 µM (inactive)
- GI50 (RPMI-8226): > 100 µM (inactive)
- GI50 (NCI-H23): > 100 µM (inactive)
- GI50 (SNB-75): > 100 µM (inactive)
- GI50 (UACC-257): > 100 µM (inactive)
- GI50 (NCI-H522): 20.4 µM (inactive)
- GI50 (RXF 631): > 10 µM (inactive)
- GI50 (DLD-1): 49 µM (inactive)
- GI50 (OVCAR-4): > 100 µM (inactive)
- GI50 (LOX IMVI): 19.6 µM (inactive)
- GI50 (COLO 205): 25.9 µM (inactive)
- GI50 (UACC-62): > 100 µM (inactive)
- GI50 (CAKI-1): > 100 µM (inactive)
- GI50 (UO-31): > 100 µM (inactive)
- GI50 (OVCAR-5): > 100 µM (inactive)
- GI50 (SNB-19): > 100 µM (inactive)
- GI50 (SN12C): > 100 µM (inactive)
- GI50 (SF-268): > 100 µM (inactive)
- GI50 (NCI-H460): 23.5 µM (inactive)
- GI50 (SK-MEL-5): > 100 µM (inactive)
- GI50 (HOP-62): > 100 µM (inactive)
- GI50 (SNB-78): > 100 µM (inactive)
- GI50 (OVCAR-8): > 100 µM (inactive)
- GI50 (DMS-273): 12.8 µM (inactive)
- GI50 (RXF 393): > 100 µM (inactive)
- GI50 (HCT-116): 77.1 µM (inactive)
- GI50 (SK-MEL-2): > 100 µM (inactive)
- GI50 (A498): > 100 µM (inactive)
- GI50 (HL-60): 32 µM (inactive)

Compound: O=C1CC2C(=O)N(Cc3ccccc3)C1C(S(=O)(=O)c1ccccc1)C2S(=O)(=O)c1ccccc1 (stereo not drawn)
- GI50 (SK-MEL-28): 1.9 µM (inactive)
- GI50 (U-251): 2.92 µM (inactive)
- GI50 (CCRF-CEM): 1.11 µM (active)
- GI50 (DMS-114): 1.29 µM (inactive)
- GI50 (K562): 2.09 µM (inactive)
- GI50 (SR): 2.48 µM (inactive)
- GI50 (HCT-15): 1.32 µM
- GI50 (XF498): 1.86 µM (inactive)
- GI50 (NCI-H226): 13.3 µM (inactive)
- GI50 (KM12): 13.7 µM (inactive)
- GI50 (SK-OV-3): 17.6 µM (inactive)
- GI50 (IGROV-1): 20.9 µM (inactive)
- GI50 (A549): 19.1 µM (inactive)
- GI50 (MOLT-4): 2.55 µM (inactive)
- GI50 (SW-620): 0.528 µM (active)
- GI50 (Malme-3M): 2 µM (inactive)
- GI50 (SF-295): 22.6 µM (inactive)
- GI50 (HOP-18): 3.78 µM (inactive)
- GI50 (HOP-92): 2.15 µM (inactive)
- GI50 (M19-MEL): 2.06 µM (inactive)
- GI50 (TK-10): 1.78 µM (inactive)
- GI50 (SF-539): 2.05 µM (inactive)
- GI50 (KM-20L2): 2.4 µM (inactive)
- GI50 (OVCAR-3): 1.78 µM (inactive)
- GI50 (M14): 1.92 µM (inactive)
- GI50 (HT-29): 2.17 µM (inactive)
- GI50 (HCC 2998): 8.02 µM (inactive)
- GI50 (786-0): 2.93 µM (inactive)
- GI50 (LXFL 529): 1.31 µM (inactive)
- GI50 (ACHN): 1.67 µM (inactive)
- GI50 (RPMI-8226): 3.08 µM (inactive)
- GI50 (NCI-H23): 3.25 µM (inactive)
- GI50 (SNB-75): 7.28 µM (inactive)
- GI50 (UACC-257): 1.61 µM (inactive)
- GI50 (NCI-H522): 0.363 µM (active)
- GI50 (RXF 631): 12.5 µM (inactive)
- GI50 (DLD-1): 1.59 µM (inactive)
- GI50 (OVCAR-4): 2.08 µM (inactive)
- GI50 (LOX IMVI): 1.68 µM (inactive)
- GI50 (COLO 205): 1.69 µM (inactive)
- GI50 (UACC-62): 1.84 µM (inactive)
- GI50 (CAKI-1): 0.604 µM (active)
- GI50 (UO-31): 10.7 µM (inactive)
- GI50 (OVCAR-5): 18 µM (inactive)
- GI50 (SN12C): 1.68 µM (inactive)
- GI50 (SF-268): 3.44 µM (inactive)
- GI50 (NCI-H460): 17.7 µM (inactive)
- GI50 (SK-MEL-5): 15.7 µM (inactive)
- GI50 (HOP-62): 22.1 µM (inactive)
- GI50 (SNB-78): 11.2 µM (inactive)
- GI50 (OVCAR-8): 1.94 µM (inactive)
- GI50 (DMS-273): 5.46 µM (inactive)
- GI50 (RXF 393): 1.83 µM (inactive)
- GI50 (HCT-116): 4.68 µM (inactive)
- GI50 (A498): 18.3 µM (inactive)
- GI50 (HL-60): 1.62 µM (inactive)

Compound: CC1(Cl)C(=O)NC(=O)N([C@H]2C[C@H](O)[C@@H](CO)O2)C1N=[N+]=[N-] (stereo partly drawn)
- GI50 (SK-MEL-28): > 61.1 µM (inactive)
- GI50 (U-251): > 100 µM (inactive)
- GI50 (CCRF-CEM): > 100 µM (inactive)
- GI50 (DMS-114): > 94.8 µM (inactive)
- GI50 (K562): > 100 µM (inactive)
- GI50 (SR): > 100 µM (inactive)
- GI50 (HCT-15): > 100 µM
- GI50 (EKVX): > 100 µM (inactive)
- GI50 (XF498): > 100 µM (inactive)
- GI50 (NCI-H226): > 100 µM (inactive)
- GI50 (KM12): > 100 µM (inactive)
- GI50 (SK-OV-3): > 100 µM (inactive)
- GI50 (IGROV-1): > 100 µM (inactive)
- GI50 (A549): > 100 µM (inactive)
- GI50 (MOLT-4): > 100 µM (inactive)
- GI50 (SW-620): > 100 µM (inactive)
- GI50 (Malme-3M): > 100 µM (inactive)
- GI50 (SF-295): > 100 µM (inactive)
- GI50 (HOP-18): > 100 µM (inactive)
- GI50 (HOP-92): > 100 µM (inactive)
- GI50 (M19-MEL): > 100 µM (inactive)
- GI50 (TK-10): > 100 µM (inactive)
- GI50 (SF-539): > 100 µM (inactive)
- GI50 (KM-20L2): > 100 µM (inactive)
- GI50 (OVCAR-3): > 100 µM (inactive)
- GI50 (M14): > 100 µM (inactive)
- GI50 (HT-29): > 100 µM (inactive)
- GI50 (HCC 2998): > 100 µM (inactive)
- GI50 (786-0): > 100 µM (inactive)
- GI50 (LXFL 529): > 100 µM (inactive)
- GI50 (ACHN): > 100 µM (inactive)
- GI50 (RPMI-8226): > 100 µM (inactive)
- GI50 (NCI-H23): > 100 µM (inactive)
- GI50 (SNB-75): > 100 µM (inactive)
- GI50 (UACC-257): > 100 µM (inactive)
- GI50 (NCI-H522): > 100 µM (inactive)
- GI50 (RXF 631): > 100 µM (inactive)
- GI50 (DLD-1): > 100 µM (inactive)
- GI50 (OVCAR-4): > 96.2 µM (inactive)
- GI50 (LOX IMVI): > 100 µM (inactive)
- GI50 (COLO 205): > 100 µM (inactive)
- GI50 (UACC-62): > 100 µM (inactive)
- GI50 (CAKI-1): > 100 µM (inactive)
- GI50 (UO-31): > 100 µM (inactive)
- GI50 (OVCAR-5): > 100 µM (inactive)
- GI50 (SNB-19): > 100 µM (inactive)
- GI50 (SN12C): > 100 µM (inactive)
- GI50 (SF-268): > 100 µM (inactive)
- GI50 (NCI-H460): > 100 µM (inactive)
- GI50 (SK-MEL-5): > 100 µM (inactive)
- GI50 (HOP-62): > 100 µM (inactive)
- GI50 (SNB-78): > 100 µM (inactive)
- GI50 (OVCAR-8): > 100 µM (inactive)
- GI50 (DMS-273): > 100 µM (inactive)
- GI50 (RXF 393): > 100 µM (inactive)
- GI50 (HCT-116): > 100 µM (inactive)
- GI50 (SK-MEL-2): > 100 µM (inactive)
- GI50 (A498): > 100 µM (inactive)
- GI50 (HL-60): > 100 µM (inactive)
